# According to PMC9675574 (JCI Insight, 2022):
# Read-outs that look alike come from different tables or passages of the source.
# How the values were obtained:
# Format in all cases: biochemical
# [1] = biological target: mouse trypsin isoform T8 (anionic trypsin) (Mus musculus, UniProt Q9R0T7); assay: biochemical; conditions: for kcat / Km: GPR-pNA, 24°C
# Method: (§1) Recombinant human and mouse trypsinogens were expressed in Escherichia coli BL21(DE3) (Invitrogen), refolded in vitro, and purified by ecotin affinity chromatography (Pharmacia FPLC), according to published protocols ([60], [63], [64]). Sulfated human trypsinogens were purified from archived samples of human pancreatic juice, as described previously, with minor modifications ([65], [66]). Briefly, 50 mg freeze-dried pancreatic juice was dissolved in 2 mL 10 mM HCl, clarified by centrifugation (21,000g, 5 minutes, 4°C), and loaded onto a MonoQ 5/50 GL column equilibrated with 20 mM Tris-HCl (pH 8.0). Proteins were eluted with a 0–0.5 M NaCl gradient at 1 mL/min flow rate for 30 minutes. The fractions containing the cationic and anionic trypsinogens were further purified with ecotin affinity chromatography. The concentration of trypsinogen preparations was estimated from their UV absorbance at 280 nm using the extinction coefficients reported previously for mouse trypsinogens ([64]) and 37,525, 38,890, and 41,535/M/cm for human cationic trypsinogen (PRSS1), anionic trypsinogen (PRSS2), and mesotrypsinogen (PRSS3), respectively. To activate trypsinogen to trypsin, approximately 1 μM solution was incubated at 37°C with 28.2 ng/mL human enterokinase (final concentration) in 0.1 M Tris-HCl (pH 8.0), 10 mM CaCl2, and 0.05% Tween 20 for 1 hour. The activation reaction was followed by measuring trypsin activity: 2 μL trypsin was diluted in 48 μL assay buffer [0.1 M Tris-HCl (pH 8.0), 1 mM CaCl2, and 0.05% Tween 20], and 150 μL of 200 μM GPR-pNA trypsin substrate (in assay buffer) was added. Substrate cleavage resulting in the release of the yellow p-nitroaniline was monitored for 1 minute in a Spectramax Plus 384 microplate reader at 405 nm.
# (§2) Michaelis-Menten kinetic parameters of trypsin isoforms were determined with the chromogenic substrate GPR-pNA at 24°C. The trypsin concentration was 1 nM and the substrate concentration was varied typically between 1.56 and 200 μM in a final volume of 200 μL assay buffer. The substrate concentration range was 3.1–400 μM for mouse trypsin isoform T7 and 0.4–50 μM for mouse trypsin isoform T20. Km and kcat values were calculated from hyperbolic fits to plots of reaction velocity versus substrate concentration.
# (§3) Michaelis-Menten kinetic parameters were then measured after adding 100 μL trypsin substrate, as described above. […] To determine the Ki, the Km values were plotted as a function of the inhibitor concentration, and the Ki was calculated by dividing the y axis intercept with the slope of the linear fit. This value corresponds to the negative of the x axis intercept. Alternatively, the substrate saturation curves obtained in the absence and presence of the increasing inhibitor concentrations were globally fitted to the competitive inhibition equation y = vmax × (x/[KmObs+ x]), where y is the reaction velocity, vmax is the maximal velocity, x is the substrate concentration, and KmObs = Km × (1 + [I]/Ki), where [I] is the inhibitor concentration. Experiments were performed 3 times and each experiment was analyzed separately. […] Kinetic analysis was performed with the Prism 8 program (GraphPad).
# [2] = biological target: mouse trypsin isoform T9 (anionic trypsin) (Mus musculus, UniProt Q9QUK9); assay: biochemical; conditions: for kcat / Km: GPR-pNA, 24°C; for Ki: mean ± SD, n = 3
# Method: as §1, §2, §3
# [3] = biological target: human and mouse trypsin isoforms; assay: Ki ranges over the panel of trypsin isoforms
# Method: Michaelis-Menten kinetic parameters of trypsin isoforms were determined with the chromogenic substrate GPR-pNA at 24°C. […] Km and kcat values were calculated from hyperbolic fits to plots of reaction velocity versus substrate concentration. […] To determine the Ki, the Km values were plotted as a function of the inhibitor concentration, and the Ki was calculated by dividing the y axis intercept with the slope of the linear fit. This value corresponds to the negative of the x axis intercept. […] Experiments were performed 3 times and each experiment was analyzed separately. […] Kinetic analysis was performed with the Prism 8 program (GraphPad).
# [4] = biological target: T1, mouse trypsin isoform T20 (anionic trypsin) (Mus musculus, UniProt P07146); assay: Competitive inhibition kinetics of trypsin, GPR-pNA substrate; conditions: for kcat / Km: GPR-pNA, 24°C; for Ki: mean ± SD, n = 3
# T1 construct: made in house; host or cells: Escherichia coli BL21(DE3)
# T1 sequence (P07146 24-246): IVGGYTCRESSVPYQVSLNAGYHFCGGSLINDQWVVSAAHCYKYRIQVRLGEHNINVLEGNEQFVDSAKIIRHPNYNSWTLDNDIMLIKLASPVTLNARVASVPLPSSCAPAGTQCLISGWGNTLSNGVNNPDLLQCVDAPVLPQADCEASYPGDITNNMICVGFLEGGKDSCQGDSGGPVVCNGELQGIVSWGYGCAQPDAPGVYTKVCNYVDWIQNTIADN
# Method: as §1, §2, §3
# [5] = biological target: T2, human trypsin isoform PRSS1 (cationic trypsin), recombinant (Homo sapiens, UniProt P07477); assay: as above; conditions: for kcat / Km: GPR-pNA, 24°C; for Ki: mean ± SD, n = 3
# T2 construct: made in house; host or cells: Escherichia coli BL21(DE3)
# Method: as §1, §2, §3
# [6] = biological target: T3, human trypsin isoform PRSS3 (mesotrypsin) (Homo sapiens, UniProt P35030); assay: as above; conditions: for kcat: GPR-pNA, 24°C; for Ki: mean ± SD, n = 3
# T3 construct: made in house; host or cells: Escherichia coli BL21(DE3)
# T3 sequence (P35030 81-304 limits assumed): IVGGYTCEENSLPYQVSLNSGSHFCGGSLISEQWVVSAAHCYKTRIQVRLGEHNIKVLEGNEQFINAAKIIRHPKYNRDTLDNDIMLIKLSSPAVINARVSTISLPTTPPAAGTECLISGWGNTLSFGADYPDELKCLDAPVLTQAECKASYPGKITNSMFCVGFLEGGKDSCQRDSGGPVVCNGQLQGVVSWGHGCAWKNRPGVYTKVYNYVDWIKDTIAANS
# Method: as §1, §2, §3
# [7] = range over trypsin isoforms tested, read-out: Ki range, individual fit analysis
# Chain of mouse trypsin isoform T8 (anionic trypsin) (Q9R0T7 24-246): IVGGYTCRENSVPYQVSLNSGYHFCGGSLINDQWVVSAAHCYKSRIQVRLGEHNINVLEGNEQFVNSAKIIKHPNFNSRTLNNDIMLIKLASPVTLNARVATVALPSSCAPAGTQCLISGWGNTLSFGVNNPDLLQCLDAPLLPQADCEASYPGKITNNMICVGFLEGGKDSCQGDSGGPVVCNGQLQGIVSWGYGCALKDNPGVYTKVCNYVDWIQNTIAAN
# Chain of mouse trypsin isoform T9 (anionic trypsin) (Q9QUK9 24-246): as the sequence (Q9R0T7 24-246) above, with V12I, S44T, N218D counted along it
structure (smiles),measurement,setting,value
N=C(N)c1ccccc1 [benzamidine],kcat,[1]; 12.5 μM benzamidine,103.9 ± 7.9 per second
same,kcat,[1]; 25 μM benzamidine,105.6 ± 4.9 per second
same,kcat,[1]; 37.5 μM benzamidine,100.2 ± 0.8 per second
same,kcat,[1]; 50 μM benzamidine,105.5 ± 7 per second
same,Ki,"[1]; mean ± SD, n = 3",6700 ± 1300 nM
same,kcat,[2]; 12.5 μM benzamidine,110 ± 3.4 per second
same,kcat,[2]; 25 μM benzamidine,111.4 ± 2.8 per second
same,kcat,[2]; 37.5 μM benzamidine,114.8 ± 2.8 per second
same,kcat,[2]; 50 μM benzamidine,112.3 ± 4.5 per second
same,Ki,[2],6800 ± 1000 nM
same,Ki,[3]; [7],3300 to 20600 nM
same,kcat,[4]; 12.5 μM benzamidine,65 ± 1 per second
same,kcat,[4]; 25 μM benzamidine,62.1 ± 1.8 per second
same,kcat,[4]; 37.5 μM benzamidine,64.7 ± 2.1 per second
same,kcat,[4]; 50 μM benzamidine,65.6 ± 2.1 per second
same,Ki,"[4]; Ki benzamidine, Global fit",7600 ± 500 nM
same,Ki,"[4]; Ki benzamidine, Individual fit",6900 ± 1100 nM
same,kcat,[5]; 25 μM benzamidine,134.8 ± 1.7 per second
same,kcat,[5]; 50 μM benzamidine,121 ± 3.3 per second
same,kcat,[5]; 75 μM benzamidine,136.3 ± 9.2 per second
same,kcat,[5]; 100 μM benzamidine,143.2 ± 8.1 per second
same,Ki,"[5]; Ki benzamidine, Global fit",22500 ± 4000 nM
same,Ki,"[5]; Ki benzamidine, Individual fit",15700 ± 4700 nM
same,kcat,[6]; 25 μM benzamidine,211.9 ± 8.6 per second
same,kcat,[6]; 50 μM benzamidine,214.2 ± 4.7 per second
same,kcat,[6]; 75 μM benzamidine,201.3 ± 8 per second
same,kcat,[6]; 100 μM benzamidine,205.7 ± 6.3 per second
same,Ki,"[6]; Ki benzamidine, Global fit",13300 ± 800 nM
same,Ki,"[6]; Ki benzamidine, Individual fit",15500 ± 2300 nM
[H]/N=C(/N)c1ccc(NCc2nc3cc(C(=O)N(CCC(=O)O)c4ccccn4)ccc3n2C)cc1 [dabigatran],Ki,[1],31.6 ± 2.6 nM
same,Km,[1]; 50 nM dabigatran,20.6 ± 1.5 µM
same,kcat,[1]; 50 nM dabigatran,90.4 ± 1 per second
same,Km,[1]; 100 nM dabigatran,34.2 ± 4.1 µM
same,kcat,[1]; 100 nM dabigatran,92.3 ± 1.6 per second
same,Km,[1]; 150 nM dabigatran,46.3 ± 3 µM
same,kcat,[1]; 150 nM dabigatran,88.9 ± 1.3 per second
same,Km,[1]; 200 nM dabigatran,60.8 ± 4 µM
same,kcat,[1]; 200 nM dabigatran,85.1 ± 7.2 per second
same,Km,[2]; 50 nM dabigatran,19.8 ± 2.7 µM
same,kcat,[2]; 50 nM dabigatran,75.8 ± 2 per second
same,Km,[2]; 100 nM dabigatran,28.3 ± 2.8 µM
same,kcat,[2]; 100 nM dabigatran,72.5 ± 2.6 per second
same,Km,[2]; 150 nM dabigatran,46.1 ± 2.4 µM
same,kcat,[2]; 150 nM dabigatran,78.4 ± 0.1 per second
same,Km,[2]; 200 nM dabigatran,56.7 ± 7.3 µM
same,kcat,[2]; 200 nM dabigatran,77.6 ± 2.5 per second
same,Ki,"[2]; Ki dabigatran, Global fit",35.8 ± 3.5 nM
same,Ki,"[2]; Ki dabigatran, Individual fit",28.4 ± 7.1 nM
same,Ki,"[3]; all human and mouse trypsin isoforms, read-out: Ki range",10 to 79 nM
same,Ki,"[3]; range over trypsin isoforms tested, read-out: Ki range, global fit analysis",10.3 to 78.9 nM
same,Ki,[3]; [7],10 to 65 nM
same,Km,[4]; 50 nM dabigatran,9.5 ± 1.3 µM
same,kcat,[4]; 50 nM dabigatran,52 ± 4 per second
same,Km,[4]; 100 nM dabigatran,19.5 ± 0.5 µM
same,kcat,[4]; 100 nM dabigatran,51.1 ± 1.7 per second
same,Km,[4]; 150 nM dabigatran,22.5 ± 2.5 µM
same,kcat,[4]; 150 nM dabigatran,48.7 ± 3.3 per second
same,Km,[4]; 200 nM dabigatran,28.5 ± 2.2 µM
same,kcat,[4]; 200 nM dabigatran,50 ± 6.3 per second
same,Ki,"[4]; Ki dabigatran, Global fit",22.6 ± 0.7 nM
same,Km,[5]; 25 nM dabigatran,31.3 ± 3.6 µM
same,kcat,[5]; 25 nM dabigatran,90.8 ± 2.8 per second
same,Km,[5]; 50 nM dabigatran,50.2 ± 2.5 µM
same,kcat,[5]; 50 nM dabigatran,91.6 ± 4.8 per second
same,Km,[5]; 75 nM dabigatran,71.1 ± 4.2 µM
same,kcat,[5]; 75 nM dabigatran,95 ± 2.3 per second
same,Km,[5]; 100 nM dabigatran,88.7 ± 3.1 µM
same,kcat,[5]; 100 nM dabigatran,99.8 ± 3.3 per second
same,Ki,"[5]; Ki dabigatran, Global fit",28.2 ± 4.5 nM
same,Ki,"[5]; Ki dabigatran, Individual fit",21 ± 2.3 nM
same,kcat,[6]; 50 nM dabigatran,214.6 ± 4.9 per second
same,kcat,[6]; 100 nM dabigatran,215.5 ± 4.6 per second
same,kcat,[6]; 150 nM dabigatran,217.5 ± 10.8 per second
same,kcat,[6]; 200 nM dabigatran,220.5 ± 4.1 per second
same,Ki,"[6]; Ki dabigatran, Global fit",51.6 ± 2.1 nM
same,Ki,"[6]; Ki dabigatran, Individual fit",35.1 ± 2.4 nM
